The record followed here is US20230391781A1, “MALT1 MODULATORS AND USES THEREOF” (Rheos Medicines, Inc., priority 2020, published 2023).

For one experiment, the target named is full length MALT1 (Homo sapiens (Human), UniProt Q9UDY8). Kind of experiment: MALT1 Biochemical Assay. The conditions noted are these: 15 nM enzyme, 30 μM peptide substrate Ac-Leu-Arg-Ser-Arg-Rh110-dPro, 30 min pre-incubation, 60 min reaction; mean value if tested more than once. Here is the method:
Inhibitor potency was evaluated by measuring enzymatic activity of full length MALT1 at varying concentrations of compound. The enzymatic assay consists of a single substrate reaction that monitors the release of a fluorescent dye upon cleavage of the peptide substrate. […] The assay buffer consists of 50 mM Hepes, pH 7.5, 0.8 M sodium citrate, 1 mM DTT, 0.004% tween-20, and 0.005% bovine serum albumin (BSA). […] The reaction was quenched after 60 minutes with the addition of iodoacetate at a final concentration of 10 mM. Total fluorescence was measured using an Envision (PerkinElmer) with fluorescence excitation at 485 nm and emission at […].
For potency determination, 1 μL of serially diluted compound (in 100% DMSO) was pre-incubated with 40 μL of enzyme for 30 minutes. The reaction was initiated with the addition of 10 μL of peptide substrate. The relative fluorescence units were transformed to percent inhibition by using 0% and 100% inhibition controls as reference. […] IC50 values were calculated by fitting the concentration-response curves to a four-parameter logistic equation in GraphPad Prism.

Experiment [1] has as its system IL-2 in Jurkat (ATCC, clone E6.1) cells stimulated with anti-CD3/28/2. Kind of experiment: Jurkat IL-2 Assay. It is filed as cell-based. The following applies: Homo sapiens; IL-2 inhibition, Jurkat cells, 30 min compound then anti-CD3/28/2 stimulation for 24 hours; mean value if tested more than once; read-out: IC50. As to the method: Inhibition was determined in a cell-based assay using Jurkat (ATCC, clone E6.1), an immortalized T-cell line, exposed to a dose response of compound and assessed for viability, and Il-2 inhibition by ELISA. Cells were cultured in RPMI/10% FBS (Invitrogen 11875093, Atlanta Biologicals S12450H), maintained below 3E6/mL and only used in assays while below passage 25. Compounds were stamped by ECHO onto 384w plates (PerkinElmer Culturplate, 6007680). The cells were plated in fresh media on top of compound and incubated for 30 minutes before stimulation with soluble anti-CD3/28/2 (Stemcell, 10970) for 24 hours. Supernatant was collected and assessed for Il-2 (MSD, 384w, L21SA-1). To assess viability of cells treated with compound, cells were lysed with CTG reagent (Promega, G7570), and measured by luminometer. […] IC50s calculated using 4-parameter fit in GraphPad Prism.
In this table, “A” indicates IC50 of less than 0.1 μM; “B” indicates IC50 from 0.1 μM up to 1 μM; and “C” indicates IC50 of greater than 1 μM. “N/A” indicates not tested. For a compound that was tested in more than one experiment, the result shown represents the mean value.

Each structure is given as a SMILES string. Where a name gives a salt, the structure may show the parent alone.

full length MALT1, sequence (Q9UDY8 whole entry): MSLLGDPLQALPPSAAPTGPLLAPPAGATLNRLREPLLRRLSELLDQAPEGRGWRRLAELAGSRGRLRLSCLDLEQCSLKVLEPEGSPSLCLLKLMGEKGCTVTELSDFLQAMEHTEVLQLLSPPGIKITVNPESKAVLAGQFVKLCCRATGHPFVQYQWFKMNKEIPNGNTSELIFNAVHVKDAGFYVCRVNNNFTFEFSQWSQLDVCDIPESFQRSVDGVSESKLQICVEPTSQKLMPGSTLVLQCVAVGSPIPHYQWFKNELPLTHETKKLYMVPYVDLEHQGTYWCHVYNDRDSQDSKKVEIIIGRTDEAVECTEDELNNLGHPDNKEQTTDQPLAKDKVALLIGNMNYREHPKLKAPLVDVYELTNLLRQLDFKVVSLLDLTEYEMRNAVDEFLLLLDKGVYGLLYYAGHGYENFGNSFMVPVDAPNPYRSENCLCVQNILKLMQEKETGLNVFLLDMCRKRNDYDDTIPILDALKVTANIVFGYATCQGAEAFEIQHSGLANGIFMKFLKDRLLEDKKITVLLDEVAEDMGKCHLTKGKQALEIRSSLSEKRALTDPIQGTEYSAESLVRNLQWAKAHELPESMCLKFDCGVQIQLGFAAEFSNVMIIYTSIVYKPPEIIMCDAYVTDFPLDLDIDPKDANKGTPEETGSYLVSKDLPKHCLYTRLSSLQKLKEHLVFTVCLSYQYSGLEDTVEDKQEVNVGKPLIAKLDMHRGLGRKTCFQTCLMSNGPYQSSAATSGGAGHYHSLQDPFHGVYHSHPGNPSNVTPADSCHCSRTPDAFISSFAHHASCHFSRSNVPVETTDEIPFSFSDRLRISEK

For orientation: IC50 means the concentration at which inhibition is half-maximal. For `CO[C@@H](C)c1c(Nc2ccc([C@@H](N(C)C(=O)C3CCS(=O)(=O)CC3)C(F)(F)F)cc2)cnc2nc(Cl)nn12` [Compound 1.26, N-[(1R)-1-[4-({2-chloro-7-[(1S)-1-methoxyethyl]-[1,2,4]triazolo[1,5-a]pyrimidin-6-yl}amino)phenyl]-2,2,2-trifluoroethyl]-N-methyl-1,1-dioxo-1λ^6-thiane-4-carboxamide], the IC50 (at full length MALT1; in experiment [1]) was greater than 1000 nM each time.

For `CO[C@@H](C)c1c(Nc2ccc([C@H](N(C)C(=O)C3CCNC3)C(F)(F)F)cc2)cnc2nc(Cl)nn12` (stereo partly drawn) [Compound 2.3, N—((S)-1-(4-((2-chloro-7-((S)-1-methoxyethyl)-[1,2,4]triazolo[1,5-a]pyrimidin-6-yl)amino)phenyl)-2,2,2-trifluoroethyl)-N-methylpyrrolidine-3-carboxamide hydrochloride], the IC50 (against full length MALT1; in experiment [1]) was 100 to 1000 nM each time.

Take `COC(=O)[C@H]1CC[C@H](C(=O)N(C)[C@@H](c2ccc(Nc3cnc4nc(Cl)nn4c3[C@H](C)OC)cc2)C(F)(F)F)CC1` [Compound 1.4, methyl(1r,4r)-4-{[(1S)-1-[4-({2-chloro-7-[(1S)-1-methoxyethyl]-[1,2,4]triazolo[1,5-a]pyrimidin-6-yl}amino)phenyl]-2,2,2-trifluoroethyl] (methyl)carbamoyl}cyclohexane-1-carboxylate]: the IC50 (against full length MALT1; in experiment [1]) was 100 to 1000 nM each time.

Turning to `CO[C@@H](C)c1c(Nc2ccc([C@H](N(C)C(=O)C3CCC3)C(F)(F)F)cc2C)cnc2nc(Cl)nn12` [Compound 1.31, N-[(1S)-1-[4-({2-chloro-7-[(1S)-1-methoxyethyl]-[1,2,4]triazolo[1,5-a]pyrimidin-6-yl}amino)-3-methylphenyl]-2,2,2-trifluoroethyl]-N-methylcyclobutanecarboxamide], the IC50 (at full length MALT1; in experiment [1]) was greater than 1000 nM each time.

As to `CO[C@@H](C)c1c(Nc2ccc([C@H](N(C)C(=O)[C@H]3C[C@H](C(=O)O)C3)C(F)(F)F)cc2)cnc2nc(Cl)nn12` [Compound 7.3, (1S,3r)-3-(((S)-1-(4-((2-chloro-7-((S)-1-methoxyethyl)-[1,2,4]triazolo[1,5-a]pyrimidin-6-yl)amino)phenyl)-2,2,2-trifluoroethyl)(methyl)carbamoyl)cyclobutane-1-carboxylic acid], the IC50 at full length MALT1 was 100 to 1000 nM; in experiment [1], greater than 1000 nM.

For `CO[C@@H](C)c1c(Nc2ccc([C@H](N(C)C(=O)C3CCCN(C(=O)OC(C)(C)C)C3)C(F)(F)F)cc2)cnc2nc(Cl)nn12` (stereo partly drawn) [Compound 1.11, Tert-butyl 3-{[(1S)-1-[4-({2-chloro-7-[(1S)-1-methoxyethyl]-[1,2,4]triazolo[1,5-a]pyrimidin-6-yl}amino)phenyl]-2,2,2-trifluoroethyl](methyl)carbamoyl}piperidine-1-carboxylate], the values for the IC50 (against full length MALT1; in experiment [1]) were 100 to 1000 nM and greater than 1000 nM, respectively.

As to `CC(C)c1c(Nc2ccc([C@H](N(C)C(=O)[C@H]3CC[C@H](C(=O)O)CC3)C(F)(F)F)cc2)cnc2nc(Cl)nn12` [Compound 7.2, (1S,4r)-4-(((S)-1-(4-((2-chloro-7-isopropyl-[1,2,4]triazolo[1,5-a]pyrimidin-6-yl)amino)phenyl)-2,2,2-trifluoroethyl)(methyl)carbamoyl)cyclohexane-1-carboxylic acid ammonia salt], the IC50 against full length MALT1 was less than 100 nM; in experiment [1], 100 to 1000 nM.

Turning to `CO[C@@H](C)c1c(Nc2ccc([C@H](N(C)C(=O)C3CC3)C(F)(F)F)c(C)c2)cnc2nc(Cl)nn12` [Compound 1.29, N-[(1S)-1-[4-({2-chloro-7-[(1S)-1-methoxyethyl]-[1,2,4]triazolo[1,5-a]pyrimidin-6-yl}amino)-2-methylphenyl]-2,2,2-trifluoroethyl]-N-methylcyclopropanecarboxamide], the IC50 (at full length MALT1; in experiment [1]) was greater than 1000 nM in each case.

For the compound `CO[C@@H](C)c1c(Nc2ccc(C(C)N(C)C(=O)C3CC3)cc2)cnc2nc(Cl)nn12` (stereo partly drawn) [Compound 1.23, N-{1-[4-({2-chloro-7-[(1S)-1-methoxyethyl]-[1,2,4]triazolo[1,5-a]pyrimidin-6-yl}amino)phenyl]ethyl}-N-methylcyclopropanecarboxamide], the IC50 (against full length MALT1; in experiment [1]) was greater than 1000 nM in each case.

In the case of `CO[C@@H](C)c1c(Nc2ccc([C@H](N(C)C(=O)C3CCN(C(=O)OC(C)(C)C)CC3)C(F)(F)F)cc2)cnc2nc(Cl)nn12` [Compound 1.10, tert-butyl 4-{[(1S)-1-[4-({2-chloro-7-[(1S)-1-methoxyethyl]-[1,2,4]triazolo[1,5-a]pyrimidin-6-yl}amino)phenyl]-2,2,2-trifluoroethyl](methyl)carbamoyl}piperidine-1-carboxylate], the IC50 (at full length MALT1; in experiment [1]) was 100 to 1000 nM in each case.

Take `CO[C@@H](C)c1c(Nc2ccc([C@H](N(C)C(=O)C3CCN(S(=O)(=O)C(C)C)CC3)C(F)(F)F)cc2)cnc2nc(Cl)nn12` [Compound 3.2, N-[(1S)-1-[4-({2-chloro-7-[(1S)-1-methoxyethyl]-[1,2,4]triazolo[1,5-a]pyrimidin-6-yl}amino)phenyl]-2,2,2-trifluoroethyl]-N-methyl-1-(propane-2-sulfonyl)piperidine-4-carboxamide]: the IC50 against full length MALT1 is less than 100 nM; in experiment [1] it was 100 to 1000 nM.

For the compound `COC(=O)N1CCC(C(=O)N(C)[C@@H](c2ccc(Nc3cnc4nc(Cl)nn4c3[C@H](C)OC)cc2)C(F)(F)F)CC1` [Compound 3.3, methyl 4-{[(1S)-1-[4-({2-chloro-7-[(1S)-1-methoxyethyl]-[1,2,4]triazolo[1,5-a]pyrimidin-6-yl}amino)phenyl]-2,2,2-trifluoroethyl](methyl)carbamoyl}piperidine-1-carboxylate], the values for the IC50 (against full length MALT1; in experiment [1]) were less than 100 nM and 100 to 1000 nM, respectively.

On to `CO[C@@H](C)c1c(Nc2ccc([C@H](N(C)C(=O)C3CCCNC3)C(F)(F)F)cc2)cnc2nc(Cl)nn12` (stereo partly drawn) [Compound 2.2, N-[(1S)-1-[4-({2-chloro-7-[(1S)-1-methoxyethyl]-[1,2,4]triazolo[1,5-a]pyrimidin-6-yl}amino)phenyl]-2,2,2-trifluoroethyl]-N-methylpiperidine-3-carboxamide], for which the IC50 at full length MALT1 is 100 to 1000 nM; in experiment [1], greater than 1000 nM.

Regarding `CNC(=O)N1CCCC(C(=O)N(C)[C@@H](c2ccc(Nc3cnc4nc(Cl)nn4c3[C@H](C)OC)cc2)C(F)(F)F)C1` (stereo partly drawn) [Compound 3.6, N3-[(1S)-1-[4-({2-chloro-7-[(1S)-1-methoxyethyl]-[1,2,4]triazolo[1,5-a]pyrimidin-6-yl}amino)phenyl]-2,2,2-trifluoroethyl]-N1,N3-dimethylpiperidine 1,3-dicarboxamide], the figures for the concentration for half-maximal inhibition (IC50) (against full length MALT1; in experiment [1]) were 100 to 1000 nM and greater than 1000 nM, respectively.

On to `CO[C@@H](C)c1c(Nc2ccc([C@H](N(C)C(=O)C3CCSCC3)C(F)(F)F)cc2)cnc2nc(Cl)nn12` [Compound 1.5, N-[(1S)-1-[4-({2-chloro-7-[(1S)-1-methoxyethyl]-[1,2,4]triazolo[1,5-a]pyrimidin-6-yl}amino)phenyl]-2,2,2-trifluoroethyl]-N-methylthiane-4-carboxamide], for which the IC50 against full length MALT1 is less than 100 nM; in experiment [1] it was 100 to 1000 nM.
